Values joined by “and” are separate entries in the source; they are usually repeats but may differ in a detail not shown here. Identical values can stand only once.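 Assay format: 96-well plates, 48-hour exposure. The concentration for 50% growth inhibition is given as GI50. TGI denotes the concentration required for complete inhibition of growth.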
Assays:
Assay in all cases: growth of human tumour cells (NCI), 48 h
A549 NSCLC = test system: A549 NSCLC
EKVX NSCLC = test system: EKVX NSCLC
HOP-62 NSCLC = test system: HOP-62 NSCLC
HOP-92 NSCLC = test system: HOP-92 NSCLC
K-562 leukemia = test system: K-562 leukemia
MALME-3M melanoma = test system: MALME-3M melanoma
NCI/ADR-RES ovarian = test system: NCI/ADR-RES ovarian
SK-MEL-28 melanoma = test system: SK-MEL-28 melanoma
SR leukemia = test system: SR leukemia
TK-10 renal = test system: TK-10 renal

SMILES | GI50 (A549 NSCLC) | TGI (A549 NSCLC) | GI50 (EKVX NSCLC) | TGI (EKVX NSCLC) | GI50 (HOP-62 NSCLC) | TGI (HOP-62 NSCLC) | GI50 (HOP-92 NSCLC) | TGI (HOP-92 NSCLC) | GI50 (K-562 leukemia) | TGI (K-562 leukemia) | GI50 (MALME-3M melanoma) | TGI (MALME-3M melanoma) | GI50 (NCI/ADR-RES ovarian) | TGI (NCI/ADR-RES ovarian) | GI50 (SK-MEL-28 melanoma) | TGI (SK-MEL-28 melanoma) | GI50 (SR leukemia) | GI50 (TK-10 renal) | TGI (TK-10 renal) | TGI (SR leukemia)
COc1ccc2nc3cccc([N+](=O)[O-])c3c(NCCCCCC(=O)O)c2c1 | 0.12 µM | 2.17 µM | 0.297 µM | 1.97 µM | 0.0277 µM | 0.187 µM | 0.0878 µM | 0.456 µM | 0.0109 µM | 0.0251 µM | 0.0437 µM | 0.194 µM | 0.313 µM | 2.61 µM | 0.159 µM | 0.548 µM | 0.0395 µM | 1.72 µM | 17.6 µM | 
Cc1c(C(N)=O)sc2c1C(=O)N(Cc1ccccc1)C1=NN=C(c3ccc(Cl)cc3)CN12 | 3.57 µM | 13.5 µM | 4.7 µM | 29.8 µM | 3.62 µM | 18.5 µM | 3.89 µM | 14.7 µM | 2.97 µM | > 100 µM | 3.29 µM | 16.4 µM | 1.76 µM | 11.3 µM | 5.67 µM | 18.5 µM | 3.14 µM | 6.52 µM | 18.9 µM | 50.7 µM
CCN(CC)CCCC(C)Nc1ccnc2cc(Oc3ccccc3)ccc12 (centres undefined) | 4.13 µM and 14.2 µM | 14.8 µM and 47.6 µM | 14.1 µM and 18.6 µM | 31.8 µM and 98.7 µM | 7.45 µM and 11.5 µM | 21.7 µM and 37.4 µM | 5.62 µM and 3.78 µM | 20.5 µM and 27 µM | 1.87 µM and 2.56 µM | 4.88 µM and 7.92 µM | 6.03 µM and 2.29 µM | 12.3 µM and 4.47 µM | 14.3 µM and 38.4 µM | 34.1 µM and > 100 µM | 1.73 µM and 1.99 µM | 3.22 µM and 3.65 µM | 2.6 µM and 2.27 µM | 2.58 µM and 3.23 µM | 8.34 µM and 10.3 µM | 12.9 µM and 6.66 µM
CC(C)N(Cc1ccccc1)c1c(S)ssc1=S | 2.41 µM | 12.9 µM | 2.2 µM | 8.49 µM | 4.24 µM | > 100 µM | 0.342 µM | 3.79 µM | 0.941 µM | 3.81 µM | 1.65 µM | 5.99 µM | 3.33 µM | > 100 µM | 2.09 µM | 17.8 µM | 2.16 µM | 5.08 µM | > 100 µM | 7.89 µM
C#Cc1c(F)ccc2cc(O)cc(-c3ncc4c(N5CC6CCC(C5)N6)nc(OC[C@@]56CCCN5C[C@H](F)C6)nc4c3F)c12 | 10.9 µM | 45.2 µM | 21.7 µM | > 54.6 µM | 2.18 µM | 22.4 µM | 4.01 µM | 16.5 µM | 8.12 µM | > 65.5 µM | 15.5 µM | 29.3 µM | > 100 µM | > 100 µM | 15.6 µM | 29.1 µM | 6.53 µM | 21.8 µM | > 55.5 µM | > 100 µM
COc1cc(OC(=O)c2ccccc2)cc2c1C(=O)C=CC2=O |  | 68.4 µM |  | 30.2 µM |  | 58.6 µM |  | 5.05 µM |  | 5.36 µM |  | 27 µM |  | > 88.6 µM |  | 34.5 µM |  |  | 32.5 µM | 5.03 µM
